Test results as given in ChEMBL document CHEMBL3407345, “Synthesis and biological evaluation of pyridazino[1',6':1,2]pyrido[3,4-b]indolinium and pyridazino[1,6-a]benzimidazolium salts as anti-inflammatory agents” (Eur J Med Chem, 2015).
Active and inactive are the calls of the source. The calls are words filed in the database; no cut-off is given here.

Columns and labels:
[1] = Toxicity against human THP1 cells assessed as cell viability at 10 uM incubated for 24 hrs by propidium iodide staining based flow cytometry; conditions: thp-1, 24 h
[2] = Toxicity against LPS-stimulated human THP1 cells assessed as cell viability at 10 uM incubated for 24 hrs by propidium iodide staining based flow cytometry; conditions: thp-1, 24 h
[3] = Anti-inflammatory activity in human THP1 cells assessed as inhibition of LPS-stimulated TNFalpha production at 0.1 uM incubated for 24 hrs followed by further stimulation with LPS during last 4 hrs by ELISA method; format: functional; conditions: THP-1
[4] = Anti-inflammatory activity in human THP1 cells assessed as inhibition of LPS-stimulated TNFalpha production at 1 uM incubated for 24 hrs followed by further stimulation with LPS during last 4 hrs by ELISA method; format: functional; conditions: THP-1
[5] = Anti-inflammatory activity in human THP1 cells assessed as inhibition of LPS-stimulated TNFalpha production at 5 uM incubated for 24 hrs followed by further stimulation with LPS during last 4 hrs by ELISA method; format: functional; conditions: THP-1
[6] = Anti-inflammatory activity in human THP1 cells assessed as inhibition of LPS-stimulated TNFalpha production at 10 uM incubated for 24 hrs followed by further stimulation with LPS during last 4 hrs by ELISA method; format: functional; conditions: THP-1
[7] = Anti-inflammatory activity in human THP1 cells assessed as inhibition of LPS-stimulated TNFalpha production at 25 uM incubated for 24 hrs followed by further stimulation with LPS during last 4 hrs by ELISA method; format: functional; conditions: THP-1
[8] = Anti-inflammatory activity in human THP1 cells assessed as inhibition of LPS-stimulated TNFalpha production incubated for 24 hrs followed by further stimulation with LPS during last 4 hrs by ELISA method; format: functional, cell-based; conditions: THP-1
[9] = Toxicity against LPS-stimulated human THP1 cells assessed as cell viability at 10 uM incubated for 24 hrs by propidium iodide staining based flow cytometry relative to control; design: species or system THP-1; conditions: read-out: Activity
[10] = biological target: T1, Tumor necrosis factor receptor superfamily member 1A (Homo sapiens, UniProt P19438); assay: Inhibition of TNFR1 (unknown origin)
T1 sequence (P19438 whole entry): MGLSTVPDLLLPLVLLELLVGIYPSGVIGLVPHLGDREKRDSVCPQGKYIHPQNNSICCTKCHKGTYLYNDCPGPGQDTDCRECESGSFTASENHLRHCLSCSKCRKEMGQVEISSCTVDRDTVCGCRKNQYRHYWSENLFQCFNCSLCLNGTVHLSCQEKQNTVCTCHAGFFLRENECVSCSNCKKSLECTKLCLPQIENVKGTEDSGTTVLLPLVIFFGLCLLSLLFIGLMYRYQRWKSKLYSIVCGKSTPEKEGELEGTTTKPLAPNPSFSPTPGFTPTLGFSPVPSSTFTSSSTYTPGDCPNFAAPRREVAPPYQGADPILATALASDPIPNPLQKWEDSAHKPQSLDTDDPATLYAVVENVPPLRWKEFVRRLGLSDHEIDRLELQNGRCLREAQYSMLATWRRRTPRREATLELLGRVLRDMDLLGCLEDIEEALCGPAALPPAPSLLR

[11] = Anti-inflammatory activity in human THP1 cells assessed as inhibition of LPS-stimulated TNFalpha production at 50 uM incubated for 24 hrs followed by further stimulation with LPS during last 4 hrs by ELISA method; format: functional; conditions: THP-1
[12] = Anti-inflammatory activity in human THP1 cells assessed as inhibition of LPS-stimulated TNFalpha production at 100 uM incubated for 24 hrs followed by further stimulation with LPS during last 4 hrs by ELISA method; format: functional; conditions: THP-1
Homo sapiens [13] = species on record: Homo sapiens; assay: Anti-inflammatory activity in human MDDC assessed as inhibition of poly I:C stimulated-IL12 production at 1 and 5 uM pre-incubated for 1 hr followed by overnight poly I:C stimulation by cytometric bead array method; format: functional
Monocyte [14] = assay: Anti-inflammatory activity in CD14 expressing human monocytes assessed as inhibition of LPS-stimulated TNFalpha mRNA expression overnight incubated with 1 uM compound followed by further stimulation with LPS for 2 hrs by quantitative RT-PCR analysis; format: functional, cell-based
Mus musculus = assay: Inhibition of LPS-stimulated TNFalpha production in spelnocytes derived from C57BL/6 mouse treated with two doses of compound at 2 mg/kg, ip at interval of 18 hrs measured 4 hrs after second dose by cytometric bead array method; format: functional, organism-based; design: dose 2 mg/kg
Monocyte [15] = assay: Anti-inflammatory activity in human monocytes assessed as inhibition of poly I:C stimulated-IL12 production at 1 and 5 uM pre-incubated for 1 hr followed by overnight poly I:C stimulation by cytometric bead array method; format: functional, cell-based
PBMC [16] = assay: Anti-inflammatory activity in human PBMC assessed as inhibition of LPS-stimulated TNFalpha production at 0.1 uM incubated for 24 hrs followed by further stimulation with LPS during last 4 hrs by ELISA method; format: functional
PBMC [17] = assay: Anti-inflammatory activity in human PBMC assessed as inhibition of LPS-stimulated TNFalpha production at 1 uM incubated for 24 hrs followed by further stimulation with LPS during last 4 hrs by ELISA method; format: functional
PBMC [18] = assay: Anti-inflammatory activity in human PBMC assessed as inhibition of LPS-stimulated TNFalpha production at 5 uM incubated for 24 hrs followed by further stimulation with LPS during last 4 hrs by ELISA method; format: functional
PBMC [19] = assay: Anti-inflammatory activity in human PBMC assessed as inhibition of LPS-stimulated TNFalpha production at 10 uM incubated for 24 hrs followed by further stimulation with LPS during last 4 hrs by ELISA method; format: functional
[20] = Anti-inflammatory activity in CD14 expressing human monocytes assessed as inhibition of LPS-stimulated TNFalpha production at 0.5 uM incubated for 24 hrs followed by further stimulation with LPS during last 4 hrs by ELISA method; format: functional; conditions: Monocyte
[21] = Anti-inflammatory activity in CD14 expressing human monocytes assessed as inhibition of LPS-stimulated TNFalpha production at 1 uM incubated for 24 hrs followed by further stimulation with LPS during last 4 hrs by ELISA method; format: functional; conditions: Monocyte
[22] = Anti-inflammatory activity in CD14 expressing human monocytes assessed as inhibition of LPS-stimulated TNFalpha production at 2.5 uM incubated for 24 hrs followed by further stimulation with LPS during last 4 hrs by ELISA method; format: functional; conditions: Monocyte
[23] = Anti-inflammatory activity in CD14 expressing human monocytes assessed as inhibition of LPS-stimulated TNFalpha production at 10 uM incubated for 24 hrs followed by further stimulation with LPS during last 4 hrs by ELISA method; format: functional; conditions: Monocyte
PBMC [24] = assay: Anti-inflammatory activity in human PBMC assessed as inhibition of LPS-stimulated TNFalpha production incubated for 24 hrs followed by further stimulation with LPS during last 4 hrs by ELISA method; format: functional, cell-based
[25] = Anti-inflammatory activity in CD14 expressing human monocytes assessed as inhibition of LPS-stimulated TNFalpha production incubated for 24 hrs followed by further stimulation with LPS during last 4 hrs by ELISA method; format: functional, cell-based; conditions: Monocyte
Homo sapiens [26] = species on record: Homo sapiens; assay: Anti-inflammatory activity in human MDDC assessed as inhibition of poly I:C stimulated-TNFalpha production at 1 and 5 uM pre-incubated for 1 hr followed by overnight poly I:C stimulation by ELISA method; format: functional
Monocyte [27] = assay: Anti-inflammatory activity in human monocytes assessed as inhibition of poly I:C stimulated-TNFalpha production at 1 and 5 uM pre-incubated for 1 hr followed by overnight poly I:C stimulation by ELISA method; format: functional, cell-based

Structure (SMILES) | Activity [1] | Activity [2] | inhibition at 1 µM [4] | inhibition at 5 µM [5] | inhibition at 10 µM [6] | inhibition at 25 µM [7] | IC50 [8] | viability at 24 h, 10 µM [9] | also measured
Cc1cc(C)cc(CS(=O)(=O)[O-])c1.O=C(O)Cn1c2ccccc2[n+]2nc3c(cc12)-c1cccc2cccc-3c12 | Non-toxic | Non-toxic | 12% | 7% | 45% | 84% | 14.6 µM | 69.9% | inhibition at 0.1 µM [3]: 9%
CCc1cc2c3c(cc[n+]2nc1CC)c1ccc(OC)cc1n3CCCI.[I-] | Non-toxic | Non-toxic | 11% | 36% | 72% | 79% | 9.88 µM | 63.3% | –
CCc1cc2c3[nH]c4ccc(Br)cc4c3cc[n+]2nc1CC.Cc1cc(C)cc(CS(=O)(=O)[O-])c1 | Non-toxic | Non-toxic | – | – | 89% | – | – | 3.76% | –
CCc1cc2c3[nH]c4c(N)cccc4c3cc[n+]2nc1CC.Cl.Cl | Non-toxic | Non-toxic | 13.3% | -13.4% | 88% | – | – | 65% | –
C#CCCCn1c2cc(OC)ccc2c2cc[n+]3nc(-c4ccco4)c(-c4ccco4)cc3c21.Cc1cc(C)cc(CS(=O)(=O)[O-])c1 | Non-toxic | Non-toxic | – | – | 87% | – | – | 0% | –
CCc1cc2c3c(cc[n+]2nc1CC)c1ccc(OCc2ccccc2)cc1n3C(=O)OC(C)(C)C.Cc1cc(C)cc(CS(=O)(=O)[O-])c1 | Non-toxic | Non-toxic | – | – | 94% | – | – | 33% | –
C#CCCCn1c2cc(OC)ccc2c2cc[n+]3nc4c(cc3c21)-c1cccc2cccc-4c12.Cc1cc(C)cc(CS(=O)(=O)[O-])c1 | Non-toxic | Non-toxic | – | – | 94% | – | – | 0% | –
CCOC(=O)Cn1c2cc(OC)ccc2c2cc[n+]3nc(CC)c(CC)cc3c21.Cc1cc(C)cc(CS(=O)(=O)[O-])c1 | Non-toxic | Non-toxic | 51% | 67% | 45% | 94% | 11.5 µM | 89.7% | –
CCc1cc2c3[nH]c4c([N+](=O)[O-])cccc4c3cc[n+]2nc1CC.Cc1cc(C)cc(CS(=O)(=O)[O-])c1 | Non-toxic | Non-toxic | 44% | 56% | 29% | 47% | – | 79.4% | –
CN(C)CCC[N+](C)(C)CCCn1c2ccccc2[n+]2nc3c(cc12)-c1cccc2cccc-3c12.[Br-].[Br-] | Non-toxic | Non-toxic | – | – | 39% | – | – | 25.3% | –
Cc1cc2occ(CN(C)CCN(C)Cc3cn(-c4cccc(C(F)(F)F)c4)c4ccccc34)c(=O)c2cc1C | – | – | – | – | – | – | – | – | IC50 [10]: 22 µM
Cc1ccc(C2=Cc3ccccc3C3N(C)C(=O)c4ccccc4N23)cc1 (centres undefined) | – | – | – | – | 47% | – | – | – | –
CCc1cc2c3c(cc[n+]2nc1CC)c1ccc(OC)cc1n3CC(=O)O.Cc1cc(C)cc(CS(=O)(=O)[O-])c1 | Non-toxic | Non-toxic | – | – | 38% | 29% | – | 93% | inhibition at 50 µM [11]: 35%; inhibition at 100 µM [12]: 40%
Cc1cc(C)cc(CS(=O)(=O)[O-])c1.O=C(O)CCCn1c2ccccc2[n+]2nc3c(cc12)-c1cccc2cccc-3c12 | Non-toxic | Non-toxic | – | – | 19% | 47% | 39.2 µM | 86% | inhibition at 50 µM [11]: 70%; inhibition at 100 µM [12]: 85%
CCc1cc2c3c(cc[n+]2nc1CC)c1ccc(OC)cc1n3CCCC#CC#CCCCn1c2cc(OC)ccc2c2cc[n+]3nc(CC)c(CC)cc3c21.Cc1cc(C)cc(CS(=O)(=O)[O-])c1.Cc1cc(C)cc(CS(=O)(=O)[O-])c1 | Non-toxic | Non-toxic | – | – | 34% | – | – | 9.54% | –
COc1ccc2c(c1)[nH]c1c2cc[n+]2nc(C)c(C)cc12.[Br-] | Non-toxic | Non-toxic | 34.9% | 63.4% | 87.8% | – | 4.49 µM | 61.3% | inhibition (Homo sapiens [13]): Active; inhibition (Monocyte [14]): Active; inhibition (Mus musculus): Active; inhibition (Monocyte [15]): Active; inhibition at 0.1 µM [3]: -0.97%; inhibition at 0.1 µM (PBMC [16]): 22.7%; inhibition at 1 µM (PBMC [17]): 38.8%; inhibition at 5 µM (PBMC [18]): 71.2%; inhibition at 10 µM (PBMC [19]): 69.2%; inhibition at 0.5 µM [20]: 28.6%; inhibition at 1 µM [21]: 38.1%; inhibition at 2.5 µM [22]: 56.4%; inhibition at 10 µM [23]: 95.3%; IC50 (PBMC [24]): 3.91 µM; IC50 [25]: 1.82 µM; inhibition (Homo sapiens [26]): Active; inhibition (Monocyte [27]): Active
O=C1NC2c3ccccc3C(=O)N2c2ccccc21 (centres undefined) | – | – | – | – | – | – | 9.33 µM | – | –
